“Also recorded” adds a separate entry of the source.
Columns and labels:
pSRC = assay: Western blot of pSRC in pig articular chondrocytes; type: cell-based; details: pig articular chondrocytes, OSM, 4 and 24 hours
Procedure: (§1) For standard western blot, treated and non-treated cells were lysed in RIPA Lysis and Extraction Buffer (Pierce, Rockford, IL) containing protease inhibitors (Pierce) followed by sonication with a 15-second pulse at a power output of 2 using the VirSonic 100 (SP Industries Company, Warminster, PA). Protein concentrations were determined by BCA protein assay (Pierce). Proteins were resolved with SDS-PAGE utilizing 4-15% Mini-PROTEAN TGX Precast Gels and transferred to Trans-Blot Turbo Transfer Packs with a 0.2-μm pore-size nitrocellulose membrane. The SDS-PAGE running buffer, 4-15% Mini-PROTEAN TGX Precast Gels, Trans-Blot Turbo Transfer Packs with a 0.2-μm pore-size nitrocellulose membrane was purchased from Biorad (Hercules, CA). Nitrocellulose membranes were blocked in 5% nonfat milk in 0.05% (v/v) Tween 20 (PBST) (Corning, Manassas, VA). Membranes were then incubated with primary antibodies p-gp130 Y814 (Evseenko lab, AbClonal), p-AKT (cat #4060, Cell Signaling), p-ERK 1/2 (cat #9106, Cell Signaling), p-Y416-SRC (cat #1246F, Novus Biologicals), p-gp130 (cat #1453R, Bioss USA) and p-NFκBp65 (cat #8242, Cell Signaling), and/or YAP1 (cat #4912, Cell Signaling). Histone H3 (cat #9515, Cell Signaling) was used as loading control. After washing in PBS containing 0.05% (v/v) Tween 20 (PBST), membranes were incubated with rabbit (cat #31460, Thermo Scientific) or mouse IgG-HRP (cat #31430, Thermo Scientific) secondary antibodies. After washing, membranes were developed with the Clarity Western ECL Blotting Substrate (Hercules, CA). Quantification of blots was performed using ImageJ 1.44 followed by Prism9 for analysis.
The studies delineate that gp130 Y814 regulates SRC downstream signaling; since SRC is known to associate with gp130, it was hypothesized that gp130 and SRC are capable of physically interacting on Y814 and hindering this interaction will prevent SRC from signaling. In order to impede this interaction, experiments were performed using an innovative peptide library screen with short and overlapping peptides mimicking the motif of gp130 around Y814 that were individually tested for pSRC downregulation; these peptides ranged from 4-15 amino acids. The peptides contained a protein sequence stretch of consecutive amino acids surrounding gp130 Y814 residue. To test their efficacy, pig articular chondrocytes were stimulated with or without OSM in presence or absence of the peptides followed by co-immunoprecipitation to determine interaction and western blot detecting pSRC activity. […] Due to sequence specificity, the peptide is capable of discriminating among other gp130 regions serving as a competitive inhibitor.

MAPK (ERK 1/2) = assay: Western blot of MAPK (pERK 1/2) in OSM-stimulated pig articular chondrocytes; type: cell-based
Procedure: as §1, with “After washing in PBS containing 0.05% (v/v) Tween 20 (PBST), membranes were incubated with rabbit (cat #31460, Thermo Scientific) or mouse IgG-HRP (cat #31430, Thermo Scientific) secondary antibodies. After washing, membranes were developed with the Clarity Western ECL Blotting Substrate (Hercules, CA).” left out

pSTAT3 = assay: Western blot of pSTAT3 in LIF-treated pig articular chondrocytes; type: cell-based; details: 4 and 24 hours
Procedure: For standard western blot, treated and non-treated cells were lysed in RIPA Lysis and Extraction Buffer (Pierce, Rockford, IL) containing protease inhibitors (Pierce) followed by sonication with a 15-second pulse at a power output of 2 using the VirSonic 100 (SP Industries Company, Warminster, PA). Protein concentrations were determined by BCA protein assay (Pierce). Proteins were resolved with SDS-PAGE utilizing 4-15% Mini-PROTEAN TGX Precast Gels and transferred to Trans-Blot Turbo Transfer Packs with a 0.2-μm pore-size nitrocellulose membrane. The SDS-PAGE running buffer, 4-15% Mini-PROTEAN TGX Precast Gels, Trans-Blot Turbo Transfer Packs with a 0.2-μm pore-size nitrocellulose membrane was purchased from Biorad (Hercules, CA). Nitrocellulose membranes were blocked in 5% nonfat milk in 0.05% (v/v) Tween 20 (PBST) (Corning, Manassas, VA). […] Quantification of blots was performed using ImageJ 1.44 followed by Prism9 for analysis.
Experiments were performed to determine whether R805 is inclined to shift the signaling outputs downstream of gp130 promoting differential regulation similar to genetic ablation of Y814. As a readout, protein levels of phosphorylated SRC, MAPK (ERK 1/2) and NF-κB were measured in response to OSM while STAT3 and YAP1 levels were evaluated in response to LIF.

[1] = system: bearded dragon (Pogona vitticeps) amputated tail; assay: Lizard tail healing model; type: in vivo; details: 14 days post-amputation
Procedure: Lizard Tail Healing Model. Captive bred and raised bearded dragon lizards (Pogona vitticeps) were maintained at 25.5° C. with 65% humidity on a 12 hr light/12 hr dark schedule with UVB lamp (Zoo Med) treatment during daylight hours. Care and experimental use of lizards was conducted in accordance with Institutional Animal Care and Use Committee (IACUC). Lizard tails were amputated halfway along lengths with scalpels To systemically deplete macrophage populations, lizards received intraperitoneal (IP) injections of L-α-phoshatidylcholine/cholesterol liposomes containing clodronate (0.125 mg/g) as previously described (Londono et al. J Immunol Regen Med. 2020). Control animals were treated with liposomes containing PBS instead of clodronate. Lizards were treated with R805 drug via daily direct injection (1 pmol drug) into amputated tail stumps. Lizard tail samples were collected 14 days following original tail amputation. Collected tail samples were photographed using an Olympus SZX16 stereo microscope. Images were uploaded in ImageJ (NIH, Bethesda MD) and quantified using the measure command. For labeling of proliferating cell populations with 5-ethynyl-2′-deoxyuridine (EdU) (ThermoFisher Scientific), animals received IP injections of EdU (50 mg/kg) four hours prior to sample collection. Samples to be analyzed via histology were fixed overnight in 4% paraformaldehyde, decalcified for 3 weeks in 10% EDTA (pH 7.4), equilibrated to 30% sucrose, embedded in optimal cutting temperature compound (OCT, Tissue-Tek), crypsectioned at 16 μm thickness, mounted on glass slides, and stained with 4′,6-diamidino-2-phenylindole (DAPI). Samples were stained with Masson's trichrome (American Mastertech) according to the manufacturer's instructions or immunostained for CTSK (Abcam antibody ab19027, used at 1:1000). Images were captured with an Olympus CKX41 microscope outfitted with a Keyence BZ-X800 microscope, and the areas of EdU signal were quantified with ImageJ. Statistical analysis was performed using Prism 7 with one or two-way ANOVA with pairwise Tukey's multiple comparison test for data with multiple groups. A p-value of <0.05 was deemed to be statistically significant. All values and graphs are shown as mean±SD.

[2] = 90-day pharmacokinetic study after intra-articular injection in Beagles; type: in vivo; details: Beagle
Procedure: Pharmacokinetic assessment of R805. Pharmacokinetics were conducted in a canine model for over 90 days. Purpose-bred beagles with intact stifles were injected intra-articularly with 500 μL of physiological saline containing 0.25% carboxymethyl cellulose (CMC) and either 1 μg or 100 ng of […] (n=4 each). Synovial fluid and plasma were collected at d0, d3, d7, d14, d21, d31, d60 and d90 and analyzed by LC-MS/MS. Doses of 10 μg, 1 μg and 0.1 μg of R805 were utilized for the main experiment.

time that IC50 concentrations of R805 were maintained in the joint ([2]; 1 μg intra-articular injection): 3 weeks
SMILES: Cc1ccc(-c2csc(NC(=O)c3ccccn3)n2)cc1 [Peptide R805]
protein levels of pSRC after OSM stimulation (pSRC): markedly suppressed; also recorded: prevents pro-inflammatory signaling in OSM-stimulated pig articular chondrocytes | MAPK (pERK 1/2) activation induced by OSM (MAPK (ERK 1/2)): markedly suppressed | pSTAT3 downstream of LIF (pSTAT3): minimal inhibitory effect; also recorded: does not affect pro-regenerative signaling downstream of gp130 | CTSK+ macrophage recruitment to amputation site [1]: exhibited CTSK+ macrophage populations that extended into new tissue areas distal to amputation planes | proliferating EdU+ cells [1]: significantly higher numbers of proliferating EdU+ wound epithelium and periosteal cells | tail tissue regrowth under macrophage depletion ([1]; R805 co-treated with clodronate liposomes): co-treatment with clodronate liposomes inhibited R805-induced tissue regrowth | tail tissue regeneration (gross morphology, Masson's trichrome) ([1]; daily direct injection into amputated tail stump): resulted in tissue regeneration as evidenced by blastema-like structures; also recorded: enhances lizard tail regeneration in a macrophage-dependent manner | detection in systemic circulation ([2]; intra-articular injection, 90-day study): never detected in systemic circulation; also recorded: not detected in systemic circulation

— patent publication US20240182526A1, “COMPOSITIONS AND METHODS FOR MODULTING INFLAMMATORY AND DEGENERATIVE DISORDER” (University of Southern California, priority 2021, published 2024)
